pEC50: −log10 of the molar value. Structures can show the parent of a compound that is named as a salt. Where two headings read alike, the source gives them in different places.
Key:
[1] = target: T1, human TRPM8 (Homo sapiens, UniProt Q7Z2W7); assay: In vitro human TRPM8 automated patch-clamp assay (SyncroPatch 384PE, CHO cells); format: cell-based; conditions: CHO cells expressing human TRPM8, 28° C.
T1 construct: expressed in transfected cells; host or cells: CHO (p658 mammalian expression vector)
How it was run: (§1)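 Whole-cell automated patch clamp on engineered CHO lines at 28 °C, held at −60 mV, with −80 to +80 mV ramps every 5 s; one compound concentration per well. Peak current minus pre-addition baseline was normalised to no-compound control and Emax, and EC50 was fitted; 200 μM menthol wells served as control.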

[2] = target: T2, pig TRPM8 (Sus scrofa, UniProt F1SM15); assay: In vitro pig TRPM8 automated patch-clamp assay (SyncroPatch 384PE, CHO cells); format: cell-based; conditions: CHO cells expressing pig TRPM8, 28° C.
T2 construct: expressed in transfected cells; host or cells: CHO (pcDNA5/FRT/TO vector; hygromycin B and blasticidin selection)
How it was run: as §1

[3] = target: T1, human TRPM8; assay: In vitro human TRPM8 fluorescence calcium flux assay (recombinant CHO cells, Fluo4-AM, FDSS6000); format: cell-based; conditions: recombinant CHO cells expressing human TRPM8; menthol-related EC50, normalized to 100 μM menthol
How it was run: (§2)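 Agonist EC50 values come from sixteen-point dose responses normalized to the 100 μM menthol maximum, fitted sigmoidally. Calcium rise was followed for 3 min post-addition in recombinant CHO lines (human or pig TRPM8). Cells were dye-loaded with 2 μM Fluo4-AM, 1 h at room temperature, probenecid-containing HBSS.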

[4] = test system: Male castrated German Landrace pigs; assay: In vivo assay: enhancement of swallowing in anesthetized pigs (manometry with pressure probe in the mouth); conditions: Sus scrofa, anesthetized pig, dose per pig 10 mg, injected in 1 ml vehicle into the oral cavity
Procedure: For testing the efficacy of TRPM8 agonists for enhancing swallowing, experiment using the pig model can be conducted according to assay described below. The efficacy can be compared to a vehicle control.
Male castrated German Landrace pigs (weight range of 20 to 35 kg) were used. Anesthesia was induced by injecting 20 ml of a urethane solution (20 g/100 mL dissolved in saline) into an ear vein corresponding to a dose of around […]. Anesthesia was maintained by continuous infusion of 15-20 mL per hour of the urethane solution, which was infused into an epigastric vein, and additionally by infusion of Zoletil and Rompun (500 mg Zoletil is disssovled in 10 ml of Rompun 2%, then diluted 1:10 with saline and 3-5 mL per hour of this diluted solution. Bupivacain 0.5% JENAPHARM@ was injected for additional infiltration anesthesia. Anesthesia was monitored via pulsoximetry (ear) and regular reflex testing for pain. Body temperature was monitored and maintained by an infrared lamp.
Preparation of pigs: Swallowing responses were assessed by manometry with a pressure probe placed into the mouth of the pig. The pressure probe consisted of a plastic tube (diameter 3.3 mm) to which a small balloon was attached. The tube was advanced about 12-14 cm into the mouth related to the snout. The balloon was then inflated with air to yield a pressure of 20-30mbar (vehicle). Ideally a swallowing response with 1 ml of fluid raised this pressure by 20-50mbar which was then referred to as the swallowing pressure (the increment of this pre-set pressure in the inflated balloon after swallowing) to be further enhanced by an effective test drug.
The free end of the tube was connected to a differential pressure transducer MPX Type 399/2 (Hugo Sachs Elektronik-Harvard Apparatus) and a Hugo Sachs Plugsys-amplifier system. The biological signals were recorded by a Hugo Sachs Plugsys-amplifier system and continuously stored on a computer hard disk by an on line data acquisition and analysis system (Hem 4.2 Notocord Systems, Croissy-sur-Seine, France).
A second tube referred to as injection tube was placed dorsally to the manometer tube to enable the administration of the vehicle that induced the baseline swallowing activity, or of this same vehicle containing the test compound.
Induction and assessment of swallowing activity: 0.5h after anesthesia induction 1 ml of a fluid or the vehicle for the test drug was injected into the injection tube placed into the oral cavity. The number of swallows was counted and the highest-pressure increment was registered. Challenges with vehicle were repeated at intervals of 30 min until two consecutive vehicle challenges show an about equal swallowing response. The next challenge was the vehicle loaded with the test drug (otherwise same procedure). The efficacy of a compound to enhance swallowing as shown in Table 7 was expressed as the % increase in pressure and frequency of swallowing after administration of the compound compared to the pressure and frequency recorded for its vehicle administered just before.

[5] = target: T2, pig TRPM8; assay: In vitro pig TRPM8 fluorescence calcium flux assay (recombinant CHO cells, Fluo4-AM, FDSS6000); format: cell-based; conditions: recombinant CHO cells expressing pig TRPM8; menthol-related EC50, normalized to 100 μM menthol
How it was run: as §2

[6] = frequency of swallowing compared with vehicle administered just before, read-out: % increase frequence vs vehicle
[7] = swallowing pressure compared with vehicle administered just before, read-out: % increase pressure vs vehicle

T2 sequence (F1SM15 1-1104): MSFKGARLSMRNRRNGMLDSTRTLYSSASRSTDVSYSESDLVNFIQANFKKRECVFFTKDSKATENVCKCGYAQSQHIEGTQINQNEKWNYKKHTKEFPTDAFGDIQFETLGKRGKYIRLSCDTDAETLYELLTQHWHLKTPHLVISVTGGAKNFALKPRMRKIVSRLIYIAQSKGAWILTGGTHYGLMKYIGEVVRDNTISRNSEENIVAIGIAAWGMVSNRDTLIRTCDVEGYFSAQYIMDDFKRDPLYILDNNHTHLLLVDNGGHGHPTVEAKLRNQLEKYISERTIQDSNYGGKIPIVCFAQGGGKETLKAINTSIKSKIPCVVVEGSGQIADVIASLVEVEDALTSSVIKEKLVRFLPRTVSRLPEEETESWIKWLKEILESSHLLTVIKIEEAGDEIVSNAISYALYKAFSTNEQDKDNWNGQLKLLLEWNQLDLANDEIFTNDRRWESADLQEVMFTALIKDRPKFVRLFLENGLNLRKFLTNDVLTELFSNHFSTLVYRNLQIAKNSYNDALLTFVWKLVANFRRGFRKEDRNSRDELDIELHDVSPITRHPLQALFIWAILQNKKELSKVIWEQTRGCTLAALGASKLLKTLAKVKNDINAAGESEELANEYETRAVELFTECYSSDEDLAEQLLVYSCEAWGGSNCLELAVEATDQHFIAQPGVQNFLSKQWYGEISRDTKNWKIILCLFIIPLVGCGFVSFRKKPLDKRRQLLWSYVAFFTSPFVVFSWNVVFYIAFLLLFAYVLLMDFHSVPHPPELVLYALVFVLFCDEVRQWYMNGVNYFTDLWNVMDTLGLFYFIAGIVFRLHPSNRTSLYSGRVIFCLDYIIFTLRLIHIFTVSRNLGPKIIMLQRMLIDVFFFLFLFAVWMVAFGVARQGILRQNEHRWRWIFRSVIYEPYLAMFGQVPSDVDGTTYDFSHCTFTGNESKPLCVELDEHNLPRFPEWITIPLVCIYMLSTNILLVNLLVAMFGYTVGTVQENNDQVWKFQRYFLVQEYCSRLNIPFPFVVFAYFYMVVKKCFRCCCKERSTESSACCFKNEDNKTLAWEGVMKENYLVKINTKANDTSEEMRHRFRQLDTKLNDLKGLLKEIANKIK
T1 sequence (Q7Z2W7 whole entry): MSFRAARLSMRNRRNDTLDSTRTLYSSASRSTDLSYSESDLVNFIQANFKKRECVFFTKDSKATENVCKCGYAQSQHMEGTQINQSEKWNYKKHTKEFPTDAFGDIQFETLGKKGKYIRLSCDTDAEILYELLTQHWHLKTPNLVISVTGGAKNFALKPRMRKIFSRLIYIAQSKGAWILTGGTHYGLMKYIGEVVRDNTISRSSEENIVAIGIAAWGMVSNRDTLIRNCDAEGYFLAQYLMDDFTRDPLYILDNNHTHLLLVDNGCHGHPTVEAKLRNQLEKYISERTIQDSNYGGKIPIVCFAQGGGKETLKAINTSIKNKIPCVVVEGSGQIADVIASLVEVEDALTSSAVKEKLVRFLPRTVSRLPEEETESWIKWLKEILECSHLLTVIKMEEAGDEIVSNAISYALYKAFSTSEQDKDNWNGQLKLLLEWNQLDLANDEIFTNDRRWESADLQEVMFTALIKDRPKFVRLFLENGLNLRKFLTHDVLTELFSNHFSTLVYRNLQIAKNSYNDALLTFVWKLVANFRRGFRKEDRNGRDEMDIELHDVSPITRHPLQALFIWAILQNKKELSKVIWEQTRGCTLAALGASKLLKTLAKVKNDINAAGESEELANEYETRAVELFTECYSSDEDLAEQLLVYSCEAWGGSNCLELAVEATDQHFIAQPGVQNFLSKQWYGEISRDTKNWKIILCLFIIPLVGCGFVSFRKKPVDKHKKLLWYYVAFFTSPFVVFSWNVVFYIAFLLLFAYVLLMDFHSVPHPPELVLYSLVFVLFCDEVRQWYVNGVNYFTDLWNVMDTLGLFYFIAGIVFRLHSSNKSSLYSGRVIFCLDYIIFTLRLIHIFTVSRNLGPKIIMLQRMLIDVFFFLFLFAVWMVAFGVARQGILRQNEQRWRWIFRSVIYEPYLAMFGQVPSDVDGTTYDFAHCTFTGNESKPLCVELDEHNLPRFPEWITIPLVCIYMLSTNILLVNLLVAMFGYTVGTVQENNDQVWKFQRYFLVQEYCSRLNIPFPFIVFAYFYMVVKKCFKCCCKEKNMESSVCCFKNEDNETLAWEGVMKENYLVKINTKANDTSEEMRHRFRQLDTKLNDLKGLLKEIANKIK

Compound	pEC50 [1]	pEC50 [2]	pEC50 [3]	change in vivo at 10 mg [4, 6]	change in vivo at 10 mg [4, 7]	pEC50 [5]
CC(C)[C@@H]1CC[C@@H](C)C[C@@]1(O)C(=O)NC[C@@H](O)c1ccccc1 [Example 1, (1S,2S,5R)-1-hydroxy-N—((S)-2-hydroxy-2-phenylethyl)-2-isopropyl-5-methylcyclohexane-1-carboxamide]	6.09	6.13	8.77	231%	274%	8.92
CC(C)[C@@H]1CC[C@@H](C)C[C@@]1(O)C(=O)NCC(F)(F)c1ccccc1 [Example 4, (1S,2S,5R)—N-(2,2-difluoro-2-phenylethyl)-1-hydroxy-2-isopropyl-5-methylcyclohexane-1-carboxamide]	6.27	6.33	8.55	417%	221%	8.92
CC(C)[C@@H]1CC[C@@H](C)C[C@@]1(O)C(=O)NCCc1ccccc1C(=O)OCCN [Example 13, 2-aminoethyl 2-(2-((1S,2S,5R)-1-hydroxy-2-isopropyl-5-methylcyclohexane-1-carboxamido)ethyl) benzoate hydrochloride]	6.82	6.11	9.00	100%	53%	8.70
CC(C)[C@@H]1CC[C@@H](C)C[C@@]1(O)C(=O)NCCc1ccccc1CO [Example 14, (1S,2S,5R)-1-hydroxy-N-(2-(hydroxymethyl)phenethyl)-2-isopropyl-5-methylcyclohexane-1-carboxamide]	5.57	5.48	7.99	62%	73%	8.17
CC(C)[C@@H]1CC[C@@H](C)C[C@@]1(O)C(=O)NCCc1cccc(C(=O)OCCO)c1 [Example 21, 2-hydroxyethyl 3-(2-((1S,2S,5R)-1-hydroxy-2-isopropyl-5-methylcyclohexane-1-carboxamido)ethyl) benzoate]	5.26	5.28	7.19	171%	181%	7.25
CC(C)[C@@H]1CC[C@@H](C)C[C@@]1(O)C(=O)NCCc1ccccc1C(=O)OCCO [Example 22, 2-hydroxyethyl 2-(2-((1S,2S,5R)-1-hydroxy-2-isopropyl-5-methylcyclohexane-1-carboxamido)ethyl) benzoate]	5.44	5.42	7.60	500%	182%	7.46
CC(C)[C@@H]1CC[C@@H](C)C[C@@]1(O)C(=O)NCCc1ccccc1OC[C@@H](O)CO [Example 25, (1S,2S,5R)—N-(2-((S)-2,3-dihydroxypropoxy)phenethyl)-1-hydroxy-2-isopropyl-5-methylcyclohexane-1-carboxamide]	5.67	5.47	7.84	173%	168%	7.48
CC(C)[C@@H]1CC[C@@H](C)C[C@@]1(O)C(=O)NCC1(c2ccccc2)COC1 [Example 31, (1S,2S,5R)-1-hydroxy-2-isopropyl-5-methyl-N-((3-phenyloxetan-3-yl)methyl)cyclohexane-1-carboxamide]	5.68	5.50	7.98	119%	253%	8.03
CC(C)[C@@H]1CC[C@@H](C)C[C@@]1(O)C(=O)NCCc1cccc(O)c1 [Example 40, (1S,2S,5R)-1-hydroxy-N-(3-hydroxyphenethyl)-2-isopropyl-5-methylcyclohexane-1-carboxamide]	5.84	5.76	8.60	62%	393%	8.85
CC(C)[C@@H]1CC[C@@H](C)C[C@@]1(O)C(=O)NCCc1cccc(C(N)=O)c1 [Example 49, 3-(2-((1S,2S,5R)-1-hydroxy-2-isopropyl-5-methylcyclohexane-1-carboxamido)ethyl) benzamide]	5.71	5.85	7.17	300%	133%	7.62
CC(C)[C@@H]1CC[C@@H](C)C[C@@]1(O)C(=O)NC[C@@H](N)c1ccccc1 [Example 50, (1S,2S,5R)—N-((2S)-amino-2-phenylethyl)-1-hydroxy-2-isopropyl-5-methylcyclohexane-1-carboxamide]	6.85	7.15	9.40	100%	63%	9.40
CC(C)[C@@H]1CC[C@@H](C)C[C@@]1(O)C(=O)NCCc1ccccc1 [Example 51, (1S,2S,5R)-1-hydroxy-2-isopropyl-5-methyl-N-phenethylcyclohexane-1-carboxamide]	5.52	6.08	8.11	250%	186%	8.35
CC(C)[C@@H]1CC[C@@H](C)C[C@@]1(O)C(=O)NCCc1ccccc1CCO [Example 52, (1S,2S,5R)-1-hydroxy-N-(2-(2-hydroxyethyl)phenethyl)-2-isopropyl-5-methylcyclohexane-1-carboxamide]	5.89	6.06	7.59	172%	202%	7.61
CC(C)OC(=O)CNC(=O)[C@]1(O)C[C@H](C)CC[C@H]1C(C)C [Example 54, isopropyl ((1S,2S,5R)-1-hydroxy-2-isopropyl-5-methylcyclohexane-1-carbonyl)glycinate]	5.25	5.06	6.65	75%	64%	7.04
CC(C)[C@@H]1CC[C@@H](C)C[C@@]1(O)C(=O)NC[C@@H](NC(=O)[C@H](C)N)c1ccccc1 [Example 63, (1S,2S,5R)—N—((S)-2-((S)-2-aminopropanamido)-2-phenylethyl)-1-hydroxy-2-isopropyl-5-methylcyclohexane-1-carboxamide]	7.28	7.24	8.59	191%	186%	8.24
CC(C)[C@@H]1CC[C@@H](C)C[C@@]1(O)C(=O)NCCc1ccccc1OCCCO [Example 80, (1S,2S,5R)-1-hydroxy-N-(2-(3-hydroxypropoxy)phenethyl)-2-isopropyl-5-methylcyclohexane-1-carboxamide]	5.74	5.40	7.40	91%	86%	7.09
COC(=O)c1ccc(CCNC(=O)[C@]2(O)C[C@H](C)CC[C@H]2C(C)C)cc1 [Example 108, methyl 4-(2-((1S,2S,5R)-1-hydroxy-2-isopropyl-5-methylcyclohexane-1-carboxamido)ethyl)benzoate]		< 5.00	6.67	114%	169%	7.14
